Patent US8568755B2 (priority 2007, dated 2013)
“And” between values parts separate entries of the source, which are not always exact repeats. Equal values may be shown once. Read-outs that look alike come from different tables or passages of the source.

Key:
Botrytis cinerea [1] = test: Test on antifungal activity against gray mold pathogen, intersecting filter papers (Test Examples 7 and 8); assay type: cell-based; conditions: for distance from both ends of the filter paper to mycelial growth area of Botrytis cinerea (average): single use section, 30 ppm
Phyicularia oryzae = assay type: cell-based; conditions: single use at 0.5 ppm
Septoria nodorum = test: Test on preventive effect against wheat glum bloth (Test Example 3); assay type: in vivo
Protocol: Wheat (cultivar: Norin-61-go) was cultivated in a plastic pot having a diameter of 7.5 cm, and when it reached 1.5-leaf stage, a mixed chemical solution having the respective sample compounds adjusted to prescribed concentrations, was applied by a spray gun in an amount of 10 ml per seedling. After the chemical solution dried, a suspension of conidia of Septoria nodorum was sprayed and inoculated and maintained at 20° C. for 7 days (for the first 3 days maintained under high humidity condition). Thereafter, the area of lesions was investigated, and the diseased area ratio to non-treated section was obtained by the following equation. Diseased area ratio to non-treated section=(a/b)×100
a: Average area of lesions in treated section
b: Average area of lesions in non-treated section
Further, the theoretical value was calculated by a Colby's formula and shown in brackets ( ) in Tables 3-1 to 3-14. Since the diseased area ratio to non-treated section (experimental value) is lower than the theoretical value, the composition of the present invention can be said to have a synergistic effect.

Botrytis cinerea [2] = test: Test on preventive effect against kidney bean gray mold (Test Example 4); assay type: in vivo
Protocol: Kidney bean (cultivar: Taisyou Kintoki) was cultivated in a plastic pot having a diameter of 12.0 cm, and when it reached 2.5-leaf stage, a mixed chemical solution having the respective test compounds adjusted to prescribed concentrations, was applied by a spray gun in an amount of 10 ml per seedling. After the chemical solution dried, the leaf was cut out, and a filter paper disk (8 mm in diameter) was placed on the leaf. Then, 120 μl of a suspension of spores of Botrytis cinerea (1.0×10^6 spores/ml) was dropped thereon and inoculated. The system was maintained under a humidity condition at 20° C. for three days, whereupon the area of lesions was investigated, and the diseased area ratio to non-treated section was obtained in the same manner as in Test Example 3. Further, the theoretical value was calculated by a Colby's formula and shown in brackets ( ) in Tables 4-1 to 4-19. Since the diseased area ratio to non-treated section (experimental value) is lower than the theoretical value, the composition of the present invention can be said to have a synergistic effect.

Erysiphe graminis = test: Test on preventive effect against wheat powdery mildew (Test Example 1); assay type: in vivo
Sphaerotheca fuliginea = assay type: in vivo
Botrytis cinerea [3] = test: Test on antifungal activity against gray mold pathogen, mycelial growth on agar (Test Example 6); assay type: cell-based
Protocol: Mycelial growth of Botrytis cinerea preliminarily obtained by cultivation was punched out by a cork borer having a diameter of 4 mm and transplanted on a potato sucrose agar medium containing mixed chemical agents adjusted to prescribed concentrations. The system was left to stand at 25° C. for 3 days for cultivation, whereupon the diameter of mycelial growth was measured. The incidence to non-treated section was obtained in the same manner as the above Test Example 5, and the results are shown in Table 6-1 to 6-3.
Further, the theoretical value was calculated by a Colby's formula and shown in brackets ( ) in Tables 6-1 to 6-3. Since the incidence to non-treated section is lower than the theoretical value, the composition of the present invention can be said to have a synergistic effect.

SMILES: CC1(C)COC(C)(CCCc2ccc(Cl)cc2)N1C(=O)n1ccnc1.CC1(C)COC(C)(CCCc2ccc(Cl)cc2)N1C(=O)n1ccnc1.O=C(O)/C=C/C(=O)O (stereo not shown) [oxpoconazole fumarate]
- distance from both ends of the filter paper to mycelial growth area of Botrytis cinerea (average) (Botrytis cinerea [1]): 7.5 mm

SMILES: C/C(=N/Nc1nc(C)cc(C)n1)c1ccccc1C [ferimzone]
- incidence to non-treated section (mycelial growth diameter) (Phyicularia oryzae): 10.9

SMILES: OC(Cc1ccccc1Cl)(Cn1nc[nH]c1=S)C1(Cl)CC1 (stereo not shown) [prothioconazole]
- diseased area ratio to non-treated section (experimental value) (Septoria nodorum; single use at 10 ppm): 30.0

SMILES: COc1ccccc1N1CCSC1=C(C#N)Sc1cc(C(F)(F)F)ccc1F [Compound γ, 2-(2-fluoro-5-(trifluoromethyl)phenylthio)-2-(3-(2-methoxyphenyl)thiazolidin-2-yliden)acetonitrile, reference compound]
- diseased area ratio to non-treated section (experimental value) (Botrytis cinerea [2]; single use at 1 ppm): 88.6
- diseased area ratio to non-treated section (experimental value) (Botrytis cinerea [2]; single use at 10 ppm): 88.6

SMILES: CCCC(C)Oc1ccc(C(=O)C(C)(C)NC(=O)c2ncccc2C(F)(F)F)cc1 (stereo not shown) [No. 11]
- diseased area ratio to non-treated section (Erysiphe graminis; Compound No.x alone 63 ppm): 45.0 and 60.0
- diseased area ratio to non-treated section (Erysiphe graminis; Compound No.x alone 125 ppm): 35.0
- diseased area ratio to non-treated section (Erysiphe graminis; Compound No.x alone 250 ppm): 22.5 and 12.5
- diseased area ratio to non-treated section (Sphaerotheca fuliginea; Compound No.x alone 8 ppm): 4.0

SMILES: Cc1ccsc1C(=O)NC(C)(C)C(=O)c1ccc(OC(C)C)cc1 [Compound No. 8, N-[[4′-(2-propyloxy)-1,1-dimethyl]phenacyl]-3-methyl-2-thiophenecarboxamide]
- diseased area ratio to non-treated section (experimental value) (Septoria nodorum; single use at 12.5 ppm): 35.0
- diseased area ratio to non-treated section (experimental value) (Septoria nodorum; single use at 50 ppm): 20.0
- diseased area ratio to non-treated section (experimental value) (Sphaerotheca fuliginea; single use at 1 ppm): 35.0
- diseased area ratio to non-treated section (experimental value) (Sphaerotheca fuliginea; single use at 2 ppm): 10.0

SMILES: CCCN(CCOc1c(Cl)cc(Cl)cc1Cl)C(=O)n1ccnc1 [prochloraz]
- diseased area ratio to non-treated section (experimental value) (Septoria nodorum; single use at 5 ppm): 40.0
- diseased area ratio to non-treated section (experimental value) (Septoria nodorum; single use at 20 ppm): 15.0

SMILES: O=C1C2CC=CCC2C(=O)N1SC(Cl)(Cl)Cl (stereo not shown) [captan]
- incidence to non-treated section (mycelial growth diameter) (Botrytis cinerea [3]; single use at 1 ppm): 94.4

SMILES: Cc1cc(OC(C)C)ccc1C(=O)C(C)(C)NC(=O)c1sccc1C [Compound No. 5, N-[[2′-methyl-4′-(2-propyloxy)-1,1-dimethyl]phenacyl]-3-methyl-2-thiophenecarboxamide]
- incidence to non-treated section (mycelial growth diameter) (Botrytis cinerea [3]; single use at 5 ppm): 32.3
- diseased area ratio to non-treated section (Erysiphe graminis; Compound (a) alone 250 ppm): 0.6
- diseased area ratio to non-treated section (experimental value) (Septoria nodorum; single use at 12.5 ppm): 30.0
- diseased area ratio to non-treated section (experimental value) (Septoria nodorum; single use at 50 ppm): 20.0
- diseased area ratio to non-treated section (experimental value) (Botrytis cinerea [2]; single use at 4 ppm): 74.0 and 83.5
- diseased area ratio to non-treated section (experimental value) (Botrytis cinerea [2]; single use at 8 ppm): 74.7

SMILES: CCCOc1nc2ccc(I)cc2c(=O)n1CCC [proquinazid]
- diseased area ratio to non-treated section (experimental value) (Botrytis cinerea [2]; single use at 10 ppm): 96.2
- diseased area ratio to non-treated section (experimental value) (Botrytis cinerea [2]; single use at 100 ppm): 92.4

SMILES: CC1CCN(c2c(-c3c(F)cc(F)cc3F)c(Cl)nc3ncnn23)CC1 [Compound α, 5-chloro-7-(4-methylpiperidin-1-yl)-6-(2,4,6-trifluorophenyl)-[1,2,4]triazolo[1,5-a]pyrimidine, reference compound]
- diseased area ratio to non-treated section (experimental value) (Botrytis cinerea [2]; single use at 4 ppm): 43.0
- diseased area ratio to non-treated section (experimental value) (Botrytis cinerea [2]; single use at 8 ppm): 15.0

SMILES: Cc1cc(OC(C)C)ccc1C(=O)C(C)(C)NC(=O)c1sccc1C [No. 5]
- diseased area ratio to non-treated section (Erysiphe graminis; Compound No.x alone 16 ppm): 25.0
- diseased area ratio to non-treated section (Erysiphe graminis; Compound No.x alone 31 ppm): 17.5 and 12.5
- diseased area ratio to non-treated section (Erysiphe graminis; Compound No.x alone 63 ppm): 10.0
- diseased area ratio to non-treated section (Erysiphe graminis; Compound No.x alone 125 ppm): 2.5
- diseased area ratio to non-treated section (Sphaerotheca fuliginea; Compound No.x alone 8 ppm): 2.5

SMILES: O=[N+]([O-])c1cc(C(F)(F)F)c(Cl)c([N+](=O)[O-])c1Nc1ncc(C(F)(F)F)cc1Cl [fluazinam, reference compound]
- distance from both ends of the filter paper to mycelial growth area of Botrytis cinerea (average) (Botrytis cinerea [1]): 5 mm
- controlling effect (contact of filter paper with mycelial growth area of Botrytis cinerea) (Botrytis cinerea [1]; single use, filter paper immersed in 30 ppm solution, 20° C. for 4 days): a certain controlling effect
- diseased area ratio to non-treated section (Sphaerotheca fuliginea; partner fungicide alone 125 ppm): 17.5
- diseased area ratio to non-treated section (Sphaerotheca fuliginea; partner fungicide alone 250 ppm): 4.0
- diseased area ratio to non-treated section (Sphaerotheca fuliginea; partner fungicide alone 500 ppm): 2.0

SMILES: O=C(Cc1ccccc1)N/C(=N\OCC1CC1)c1c(C(F)(F)F)ccc(F)c1F [cyflufenamid]
- diseased area ratio to non-treated section (experimental value) (Botrytis cinerea [2]; single use at 10 ppm): 87.3
- diseased area ratio to non-treated section (experimental value) (Botrytis cinerea [2]; single use at 100 ppm): 82.3

SMILES: CCCCC(C#N)(Cn1cncn1)c1ccc(Cl)cc1 (stereo not shown) [myclobutanil]
- diseased area ratio to non-treated section (experimental value) (Septoria nodorum; single use at 5 ppm): 60.0
- diseased area ratio to non-treated section (experimental value) (Septoria nodorum; single use at 20 ppm): 35.0

SMILES: CNC(=O)/C(=N/OC)c1ccccc1COc1cc(C)ccc1C [dimoxystrobin]
- diseased area ratio to non-treated section (Erysiphe graminis; fungicide (b) alone 5 ppm): 5.0

SMILES: CC(=O)c1c(C)c(C)nc2c(F)cc(C(C)(C)C)cc12 [compound β, 2,3-dimethyl-6-t-butyl-8-fluoro-4-acetylquinoline]
- diseased area ratio to non-treated section (Erysiphe graminis; fungicide (b) alone 10 ppm): 95.0

SMILES: FC(F)C(F)(F)OCC(Cn1cncn1)c1ccc(Cl)cc1Cl (stereo not shown) [tetraconazole]
- diseased area ratio to non-treated section (Erysiphe graminis; fungicide (b) alone 0.125 ppm): 60.0
- diseased area ratio to non-treated section (Erysiphe graminis; fungicide (b) alone 0.5 ppm): 52.5

SMILES: C[C@H]1O[C@H](O[C@H]2[C@H](O)[C@@H](O)[C@@H](O)[C@H](O)[C@@H]2O)[C@@H](N)C[C@@H]1NC(=N)C(=O)O [kasugamycin]
- diseased area ratio to non-treated section (Erysiphe graminis; fungicide (b) alone 50 ppm): 97.5
- diseased area ratio to non-treated section (Erysiphe graminis; fungicide (b) alone 500 ppm): 55.0

SMILES: CC1(C)CCC(Cc2ccc(Cl)cc2)C1(O)Cn1cncn1 (stereo not shown) [metconazole]
- diseased area ratio to non-treated section (Erysiphe graminis; fungicide (b) alone 0.0075 ppm): 95.0
- diseased area ratio to non-treated section (Erysiphe graminis; fungicide (b) alone 0.03 ppm): 55.0

SMILES: CC(C)Oc1ccc(C(=O)C(C)(C)NC(=O)c2ncccc2C(F)(F)F)cc1 [Compound No. 7, N-[[4′-(2-propyloxy)-1,1-dimethyl]phenacyl]-3-trifluoromethyl-2-pyridinecarboxamide]
- diseased area ratio to non-treated section (Erysiphe graminis; Compound (a) alone 8 ppm): 30.0
- diseased area ratio to non-treated section (Erysiphe graminis; Compound (a) alone 16 ppm): 25.0
- diseased area ratio to non-treated section (Erysiphe graminis; Compound (a) alone 31 ppm): 4.0

SMILES: Cc1cccc2sc3nncn3c12 [tricyclazole]
- diseased area ratio to non-treated section (Erysiphe graminis; fungicide (b) alone 50 ppm): 22.5
- diseased area ratio to non-treated section (Erysiphe graminis; fungicide (b) alone 500 ppm): 50.0

SMILES: Cc1ccsc1C(=O)NC(C)(C)C(=O)c1ccc(OC(C)C)cc1 [No. 8]
- diseased area ratio to non-treated section (Erysiphe graminis; Compound No.x alone 63 ppm): 60.0
- diseased area ratio to non-treated section (Erysiphe graminis; Compound No.x alone 125 ppm): 55.0 and 30.0
- diseased area ratio to non-treated section (Sphaerotheca fuliginea; Compound No.x alone 1 ppm): 81.3
- diseased area ratio to non-treated section (Sphaerotheca fuliginea; Compound No.x alone 2 ppm): 45.0 and 75.0

SMILES: COC(=O)NCc1cc(/C(C)=N/OCc2cccc(C)n2)ccc1Cl [pyribencarb]
- diseased area ratio to non-treated section (experimental value) (Botrytis cinerea [2]; single use at 4 ppm): 70.0
- diseased area ratio to non-treated section (experimental value) (Botrytis cinerea [2]; single use at 8 ppm): 65.0

SMILES: CO/N=C(/C(=O)OC)c1ccccc1COc1ccccc1C [kresoxim-methyl]
- diseased area ratio to non-treated section (Erysiphe graminis; fungicide (b) alone 12.5 ppm): 4.9
- diseased area ratio to non-treated section (Erysiphe graminis; fungicide (b) alone 25 ppm): 1.8

SMILES: CC(Cc1ccc(C(C)(C)C)cc1)CN1C[C@@H](C)O[C@@H](C)C1 (stereo partly shown) [fenpropimorph]
- diseased area ratio to non-treated section (Erysiphe graminis; fungicide (b) alone 12.5 ppm): 36.4
- diseased area ratio to non-treated section (Erysiphe graminis; fungicide (b) alone 25 ppm): 9.1

SMILES: Cc1cc(OC(C)C)ccc1C(=O)C(C)(C)NC(=O)c1ncccc1C(F)(F)F [No. 4]
- diseased area ratio to non-treated section (Erysiphe graminis; Compound No.x alone 16 ppm): 17.5
- diseased area ratio to non-treated section (Erysiphe graminis; Compound No.x alone 31 ppm): 17.5
- diseased area ratio to non-treated section (Erysiphe graminis; Compound No.x alone 63 ppm): 15.0 and 7.5
- diseased area ratio to non-treated section (Erysiphe graminis; Compound No.x alone 125 ppm): 5.0
